The values that follow come from US4296105A, “Derivatives of doxorubicine, their preparation and use” (Institut International de Pathologie Cellulaire et …, priority 1978, dated 1981).

Each structure is given as a SMILES string.

The subject of one series is leukemia L1210. Kind of series: Antitumoral activity in DBA2 mice grafted subcutaneously with leukemia L1210 cells. The class given is in vivo. The procedure: The tests were made with mice weighing 20 to 22 g grafted subcutaneously with 10^6 cells of leukemia L1210 and treated with daily doses between 5 and 60 mg/kg i.v.
At equitoxic dose, doxorubicine induces 78% ILS, 16% of surviving animals at long term and an average tumoral volume of 24 mm^3 on day 12.

A short description of series [1]: Acute toxicity in mice (50% lethal dose, i.v. injection 2 consecutive days). The class given is in vivo.
[2] abbreviates: DBA2 mice 20-22 g, 10^6 L1210 cells s.c., i.v. days 1 and 2, 48 mg/kg a day.
Setting [3] is: DBA2 mice, L1210 s.c., equitoxic dose.

In the case of `COc1cccc2c1C(=O)c1c(O)c3c(c(O)c1C2=O)C[C@@](O)(C(=O)CO)C[C@@H]3O[C@H]1C[C@H](NC(=O)[C@@H](N)CC(C)C)[C@H](O)[C@H](C)O1` [N-(L-leucyl)doxorubicine], in the series with leukemia L1210 (setting [2]), the “increase in life span (ILS)” value turned out to be 131%, the “surviving animals at long term” value was 33% and the “average tumoral volume on day 12” value is 0.01 mm^3. The same compound showed an LD50 in series [1] (mouse, in vivo, iv) of approximately 67 mg/kg. In series [1] (versus doxorubicine), the “LD50 relative to doxorubicine (times more than for doxorubicine)” value is given as 6 times.
On to `COc1cccc2c1C(=O)c1c(O)c3c(c(O)c1C2=O)C[C@@](O)(C(=O)CO)C[C@@H]3O[C@H]1C[C@H](N)[C@H](O)[C@H](C)O1` [doxorubicine], for which, in the series with leukemia L1210 (setting [3]), the “increase in life span (ILS)” value came to 78%, the “surviving animals at long term” value worked out at 16% and the “average tumoral volume on day 12” value is recorded as 24 mm^3.
